Reference: ChEMBL document CHEMBL1201862, “PubChem BioAssay data set” (2004)
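48-hour exposure; five concentrations; linearly interpolated endpoints. GI50 marks 50% less growth.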 Activity calls are given as the source filed them. No stated cut-off is given here; in the data, active = GI50 up to about 1.1 µM and inactive = higher.

What was measured:
Experiment in all cases: NCI-60 cell line screen, 48 h
[1] = tested on: A498
[2] = tested on: M14
[3] = tested on: OVCAR-5
[4] = tested on: DMS-273
[5] = tested on: SN12C
[6] = tested on: SNB-78
[7] = tested on: SF-268
[8] = tested on: 786-0
[9] = tested on: UACC-257
[10] = tested on: HOP-62
[11] = tested on: NCI-H226
[12] = tested on: MDA-MB-231
[13] = tested on: T47D
[14] = tested on: Hs-578T
[15] = tested on: PC-3
[16] = tested on: DU-145
[17] = tested on: NCI/ADR-RES
[18] = tested on: MDA-MB-435
[19] = tested on: MCF7

Compound	GI50 [1]	GI50 [2]	GI50 [3]	GI50 [4]	GI50 [5]	GI50 [6]	GI50 [7]	GI50 [8]	GI50 [9]	GI50 [10]	GI50 [11]	GI50 [12]	GI50 [13]	GI50 [14]	GI50 [15]	GI50 [16]	GI50 [17]	GI50 [18]	GI50 [19]
CCCCCCCC/C=C/CCCCCCCC(=O)N(O)C1CC(n2cc(C)c(=O)[nH]c2=O)OC1CO (centres undefined)	18.3 µM (inactive)	3.55 µM (inactive)	10.4 µM (inactive)	5.07 µM (inactive)	10.6 µM (inactive)	18 µM (inactive)	11 µM (inactive)	4.46 µM (inactive)	13.2 µM (inactive)	6.25 µM (inactive)	–	–	–	–	–	–	–	–	–
NC1=NN(c2ccccc2)C(=O)C1C(=O)C(=O)Nc1ccc(Cl)cc1 (centres undefined)	> 100 µM (inactive)	> 100 µM (inactive)	> 100 µM (inactive)	> 100 µM (inactive)	> 100 µM (inactive)	> 100 µM (inactive)	> 100 µM (inactive)	> 100 µM (inactive)	> 100 µM (inactive)	> 100 µM (inactive)	> 100 µM (inactive)	–	–	–	–	–	–	–	–
COc1ccc(C(=O)OCC2OC(n3cnc4c(=S)nc[nH]c43)C(OC(=O)c3ccc(OC)cc3)C2OC(=O)c2ccc(OC)cc2)cc1 (centres undefined)	–	3.36 µM (inactive)	23.1 µM (inactive)	15 µM (inactive)	–	–	30.1 µM (inactive)	15.3 µM (inactive)	16.8 µM (inactive)	3.18 µM (inactive)	30.1 µM (inactive)	–	–	–	–	–	–	–	–
COC(=O)[C@@H](Nc1ccccc1)[C@@]1(C(=O)OC)SC12c1ccccc1-c1ccccc12	> 100 µM (inactive)	> 100 µM (inactive)	> 100 µM (inactive)	–	44.6 µM (inactive)	–	> 100 µM (inactive)	29.4 µM (inactive)	84.3 µM (inactive)	> 100 µM (inactive)	> 100 µM (inactive)	> 100 µM (inactive)	25.5 µM (inactive)	> 100 µM (inactive)	35 µM (inactive)	> 100 µM (inactive)	> 100 µM (inactive)	54.8 µM (inactive)	34.2 µM (inactive)
COC(=O)Nc1nc2ccc(S(=O)(=O)SC)cc2[nH]1	16.3 µM (inactive)	3.4 µM (inactive)	11.6 µM (inactive)	–	10.9 µM (inactive)	–	16.5 µM (inactive)	5.09 µM (inactive)	10.8 µM (inactive)	21.1 µM (inactive)	6.27 µM (inactive)	11.6 µM (inactive)	9.55 µM (inactive)	20.5 µM (inactive)	4.42 µM (inactive)	6.05 µM (inactive)	3.61 µM (inactive)	2.69 µM (inactive)	4.94 µM (inactive)
CC1(C)Oc2ccc3c(=O)cc(-c4ccc(F)cc4)oc3c2C1C(=O)O (centres undefined)	> 100 µM (inactive)	> 100 µM (inactive)	> 100 µM (inactive)	–	> 100 µM (inactive)	–	> 100 µM (inactive)	> 100 µM (inactive)	> 100 µM (inactive)	> 100 µM (inactive)	> 100 µM (inactive)	> 100 µM (inactive)	> 100 µM (inactive)	> 100 µM (inactive)	> 100 µM (inactive)	> 100 µM (inactive)	> 100 µM (inactive)	> 100 µM (inactive)	> 100 µM (inactive)
NC(Cc1cccc([N+](=O)[O-])c1)C(=O)O (centres undefined)	> 100 µM (inactive)	> 100 µM (inactive)	> 100 µM (inactive)	–	> 100 µM (inactive)	–	> 100 µM (inactive)	> 100 µM (inactive)	> 100 µM (inactive)	> 100 µM (inactive)	> 100 µM (inactive)	> 100 µM (inactive)	> 100 µM (inactive)	> 100 µM (inactive)	> 100 µM (inactive)	> 100 µM (inactive)	> 100 µM (inactive)	> 100 µM (inactive)	> 100 µM (inactive)
COc1ccc(CC2Cc3ccccc3CCN2)cc1OC (centres undefined)	> 50 µM (inactive)	16.2 µM (inactive)	38.2 µM (inactive)	–	> 50 µM (inactive)	–	> 50 µM (inactive)	26.3 µM (inactive)	21.6 µM (inactive)	40.5 µM (inactive)	12.1 µM (inactive)	44.5 µM (inactive)	46.5 µM (inactive)	23.8 µM (inactive)	> 50 µM (inactive)	> 50 µM (inactive)	> 50 µM (inactive)	> 50 µM (inactive)	> 50 µM (inactive)
NC(=O)C(=O)c1ncn(Cc2ccccc2)c1N	> 100 µM (inactive)	> 100 µM (inactive)	> 100 µM (inactive)	–	> 100 µM (inactive)	–	> 100 µM (inactive)	> 100 µM (inactive)	> 100 µM (inactive)	> 100 µM (inactive)	> 100 µM (inactive)	> 100 µM (inactive)	> 100 µM (inactive)	> 100 µM (inactive)	> 100 µM (inactive)	> 100 µM (inactive)	> 100 µM (inactive)	> 100 µM (inactive)	> 100 µM (inactive)
CC(C)c1cccc(C(C)C)c1NC(=O)C(=O)C1CCC2=C(Sc3ccccc3N2)C1=O (centres undefined)	> 100 µM (inactive)	> 100 µM (inactive)	41.5 µM (inactive)	40.5 µM (inactive)	28.8 µM (inactive)	> 100 µM (inactive)	> 100 µM (inactive)	65.2 µM (inactive)	67.3 µM (inactive)	> 100 µM (inactive)	29.4 µM (inactive)	–	–	–	–	–	–	–	–
CCC1(O)C[C@H]2CN(CCCc3c([nH]c4ccccc34)[C@@](C(=O)OC)(c3cc4c(cc3OC)N(C)C3[C@](O)(C(=O)OC)[C@H](OC(C)=O)[C@]5(CC)C=CCN6CC[C@]43[C@H]65)C2)C1 (some centres undefined)	1.21 µM (inactive)	0.726 µM (active)	3.34 µM (inactive)	0.406 µM (active)	3.61 µM (inactive)	0.543 µM (active)	1.01 µM (active)	0.589 µM (active)	1.34 µM (inactive)	0.465 µM (active)	–	–	–	–	–	–	–	–	–
O=C(O)CSc1ccc2nc3ccccc3c(O)c2c1	> 100 µM (inactive)	> 100 µM (inactive)	> 100 µM (inactive)	> 100 µM (inactive)	> 100 µM (inactive)	–	> 100 µM (inactive)	> 100 µM (inactive)	> 100 µM (inactive)	> 100 µM (inactive)	> 100 µM (inactive)	–	–	–	–	–	–	–	–
ClC1CCC2OOC1O2 (centres undefined)	> 100 µM (inactive)	> 100 µM (inactive)	> 100 µM (inactive)	> 100 µM (inactive)	> 100 µM (inactive)	> 100 µM (inactive)	> 100 µM (inactive)	> 100 µM (inactive)	> 100 µM (inactive)	> 100 µM (inactive)	> 100 µM (inactive)	–	–	–	–	–	–	–	–
CC(C)[C@@H](C)CC[C@@H](C)C1CC=C2[C@@H]3CCC4C[C@@H](O[Si](C)(C)C(C)(C)C)CC[C@]4(C)C3CC[C@@]21C (some centres undefined)	> 100 µM (inactive)	> 100 µM (inactive)	–	> 100 µM (inactive)	> 100 µM (inactive)	> 100 µM (inactive)	> 100 µM (inactive)	> 100 µM (inactive)	> 100 µM (inactive)	> 100 µM (inactive)	> 100 µM (inactive)	–	–	–	–	–	–	–	–
CC1CCCN1CCCOC(=O)c1ccc(OC2C=CCCC2)cc1 (centres undefined)	67.1 µM (inactive)	16.2 µM (inactive)	71.9 µM (inactive)	–	39.4 µM (inactive)	–	37.8 µM (inactive)	22.3 µM (inactive)	60.8 µM (inactive)	20.1 µM (inactive)	29.4 µM (inactive)	18.1 µM (inactive)	13.5 µM (inactive)	32.4 µM (inactive)	22.4 µM (inactive)	> 100 µM (inactive)	48.3 µM (inactive)	> 100 µM (inactive)	25.1 µM (inactive)
COCCOCCOCCOc1ccc(C(C#N)N(CCc2ccccc2)C(=O)c2cc(C(=O)N(CCc3ccccc3)C(C#N)c3ccc(OCCOCCOCCOC)cc3)cc(C(=O)N(CCc3ccccc3)C(C#N)c3ccc(OCCOCCOCCOC)cc3)c2)cc1 (centres undefined)	> 100 µM (inactive)	> 100 µM (inactive)	> 100 µM (inactive)	–	> 100 µM (inactive)	–	> 100 µM (inactive)	> 100 µM (inactive)	> 100 µM (inactive)	> 100 µM (inactive)	> 100 µM (inactive)	> 100 µM (inactive)	> 100 µM (inactive)	54.3 µM (inactive)	> 100 µM (inactive)	> 100 µM (inactive)	> 100 µM (inactive)	> 100 µM (inactive)	> 100 µM (inactive)
COc1ccc(C(=O)Oc2c(C#N)sc3c2c(=O)n(-c2ccccc2)c(=S)n3-c2ccccc2)cc1	16.4 µM (inactive)	20.3 µM (inactive)	26.4 µM (inactive)	–	23.5 µM (inactive)	–	34.2 µM (inactive)	44.1 µM (inactive)	47.5 µM (inactive)	24.7 µM (inactive)	24.2 µM (inactive)	31.3 µM (inactive)	33.6 µM (inactive)	25.9 µM (inactive)	26.5 µM (inactive)	33 µM (inactive)	20.6 µM (inactive)	22.7 µM (inactive)	15 µM (inactive)
CCCCCCCC(=O)OC[C@@H](C[As](=O)(O)O)OC(=O)CCCCCCC	11.2 µM (inactive)	14.9 µM (inactive)	–	12.1 µM (inactive)	11.2 µM (inactive)	10.4 µM (inactive)	5.85 µM (inactive)	12.1 µM (inactive)	16.4 µM (inactive)	18.7 µM (inactive)	6.58 µM (inactive)	–	–	–	–	–	–	–	–
CC(C)c1cccc2sc(NC(=O)C(=O)C(C#N)c3cccc4ccccc34)nc12 (centres undefined)	73.3 µM (inactive)	> 100 µM (inactive)	–	90.4 µM (inactive)	> 100 µM (inactive)	93.1 µM (inactive)	> 100 µM (inactive)	> 100 µM (inactive)	92.3 µM (inactive)	99.8 µM (inactive)	71.1 µM (inactive)	–	–	–	–	–	–	–	–
